From patent US10420770B2, “Compositions and methods for treating dementia” (EIP Pharma, LLC, priority 2016, dated 2019)

Key:
Type in all cases: in vivo, human
[1] = system: patients with mild cognitive impairment (MCI) due to Alzheimer's disease (AD) or with mild AD; assay: Wechsler Memory Scale (WMS) immediate and delayed recall, 12-week study (Example 1); conditions: for patients with improvement from baseline, WMS delayed recall composite score / patients with improvement from baseline, WMS immediate recall composite score: day 84
Procedure: In this study, episodic memory was evaluated using the Dutch version of the WMS scale utilizing both verbal and visual information: Logical Memory (LM I & II) test, in which subject is read a story; Verbal-Paired Associates (VPA I & II), in which subject is given pairs of words and asked remember which words go together; and Visual Reproduction (VR I & II)), in which subject is given drawings of specific shapes. Subjects were then asked to recall the information within each test both in an immediate (WMS-Immediate Recall composite) and delayed (WMS-Delayed Recall composite) basis. The total score of the WMS-Immediate Recall component could range from 0 to 136 (0-53 for LMI; 0-40 for VPA I, and 0-43 VR I) and for the WMS-Delayed Recall from 0 to 92 (0-39 for LM II; 0-10 for VPA II, and 0-43 VR II).
Further analysis included Wechsler Memory Scale (WMS) Analyses. The WMS includes three subcategories: immediate recall, delayed recall, and symbol span, each with distinct assessments. Results can be analyzed as two distinct composites scores or as an overall composite score. This evaluation included the overall (score range: 0 to 401), immediate recall (score range: 0 to 136), and delayed recall (score range: 0 to 92) composite scores; the latter two are considered measures of episodic memory. In addition, the Symbol Span sub-component of WMS was analyzed separately (score range: 0 to 50). In all cases, higher scores reflect better cognitive performance.

[2] = system: brain-derived neurotrophic factor (BDNF); assay: Plasma BDNF levels by Somascan, 12-week study; conditions: baseline vs after 84 days; n=10 subjects
Procedure: FIG. 15 depicts plasma brain-derived neurotrophic, factor (BDNF) levels at baseline and after 84 days (n=10 subjects). BDNF levels were measured by Somascan®.

[3] = Safety and tolerability, 6-week Phase IIa study (Example 2); conditions: 6 weeks
Procedure: Investigators and patients were blinded to the dosage strength. The first 3 patients were randomly assigned to receive either 40 or 125 mg twice daily, with dosing level blinded. The remaining patients (up to 7 patients) received 40 mg twice daily on an open-label basis. […] Patients were instructed to eat a meal approximately 30 minutes before dosing with VX 745 with each dose taken approximately 12 hours (+/−3 hours) apart at the same times each day throughout the study.

[4] = system: interleukin-8 (IL-8); assay: CSF cytokine measurement (Mesoscale Discovery), IL-8, 6-week study; conditions: high exposure group by plasma AUC(0-8) on Day 1
Procedure: Cytokine measurements of CSF samples were done to assess the balance of pro-inflammatory versus anti-inflammatory cytokines. The t-helper type 1/t-helper type 2 (TH1/TH2) multiplex cytokine (IFN-γ, IL-1β, IL-2, IL-4, IL-5, IL-8, IL-10, IL-12p70, IL-13, TNFα ) panel by Mescoscale Discovery were utilized to inform on effects on the relative balance of pro-inflammatory cytokines (e.g. IL-1β, TNFα) versus anti-inflammatory cytokines (e.g., IL-10).
Target engagement was assessed through the evaluation of the effect of drug treatment on CSF biomarkers. CSF was collected at 6 time-points over 24 hours at baseline (the 24 hours prior to first dose) and again at 6 time-points over 24 hours near the end of treatment on Day 40. The samples were evaluated by the Mesoscale Discovery ELISA platform for multiple cytokines ((IFN-γ, IL-1β, IL-2, IL-4, IL-5, IL-8, IL-12 protein 70, IL-13, TNFα, and CSF) and for amyloid-beta peptides (Aβ 38/40/42).

[5] = system: patients with mild cognitive impairment (MCI) due to Alzheimer's disease (AD) or with mild AD; assay: Hopkins Verbal Learning Test-Revised (HVLT-R), 6-week study (Example 2); conditions: for HVLT-R Delayed Recall change from averaged baseline, Maximum / HVLT-R Delayed Recall change from averaged baseline, Median / HVLT-R Delayed Recall change from averaged baseline, Minimum / HVLT-R RDI change from averaged baseline, Maximum / HVLT-R RDI change from averaged baseline, Median / HVLT-R RDI change from averaged baseline, Minimum / HVLT-R Retention change from averaged baseline, Maximum / HVLT-R Retention change from averaged baseline, Median / HVLT-R Retention change from averaged baseline, Minimum / HVLT-R Total Recall change from averaged baseline, Maximum / HVLT-R Total Recall change from averaged baseline, Median / HVLT-R Total Recall change from averaged baseline, Minimum: n=8; for HVLT-R Delayed Recall change from averaged baseline, Arithmetic Mean / HVLT-R Retention change from averaged baseline, Arithmetic Mean / HVLT-R Total Recall change from averaged baseline, Arithmetic Mean: overall pharmacodynamic population n=8
Procedure: The Hopkins Verbal Learning Test-Revised (HVLT-R) was utilized to assess episodic memory. In this test, 12 specific words from a list were provided verbally, and the subject was asked to recall as many words as possible. Two scores are calculated: (i) Total (Immediate) Recall Score (range: 0-36): combined score of three consecutive trials immediately following provision of words and (ii) Delayed Recall Score (range: 0-12): Number of words recalled when subject was asked 20 to 25 minutes after initial trials to recall as many of the words originally provided. A strength of the HVLT-R is that six different validated version exist that each incorporate a different set of words. Due to the use of these different versions during the course of a clinical study, there is essentially no practice effect with repeated administration (Benedict, R. H. B. et al, “Hopkins Verbal Learning Test-Revised: Normative Data and Analysis of Inter-Form and Test-Retest Reliability” The Clinical Neuropsychologist, 12(1): 43-55 (1998)).

[6] = system: neurofilament light chain (NFL); assay: CSF neurofilament light chain (NFL), 6-week study; conditions: baseline to day 40
Procedure: Phospho-tau and NFL proteins from CSF sampling were evaluated as markers of the effects of inflammation on neurodegeneration and axonopathy, respectively.

[7] = Example 1 study (N = 15), Wechsler Memory Scale
[8] = Example 2 study (N = 8), HLVT-R

O=c1ncn2nc(Sc3ccc(F)cc3F)ccc2c1-c1c(Cl)cccc1Cl [VX-745]
patients with improvement from baseline, WMS delayed recall composite score ([1]; 40 mg group): 8 of 8
patients with improvement from baseline, WMS immediate recall composite score ([1]; 40 mg group): 7 of 8
patients with improvement from baseline, WMS delayed recall composite score ([1]; 125 mg group): 6 of 7
patients with improvement from baseline, WMS immediate recall composite score ([1]; 125 mg group): 6 of 7
change in all subcomponents of WMS episodic memory composites ([1]; Day 84): statistically significant (P<0.05) increases
Mean WMS delayed recall composite score ([1]; Day 84, combined doses, baseline 13.2 (±2.3), p<0.001): 22.1 (±4.1)
Mean WMS immediate recall composite score ([1]; Day 84, n=15 combined doses, baseline 48.4 (±3.8), p=0.005): 58.4 (±4.3)
Calculated within-subject treatment effect size (Cohen's d), Delayed Recall [1, 7]: .69
Calculated within-subject treatment effect size (Cohen's d), Immediate Recall [1, 7]: .59
WMS immediate and delayed recall, cognitive analysis ([1]; nearly all patients, regardless of effect on amyloid plaque): dose dependent improvement
plasma BDNF levels [2]: increases plasma BDNF levels
tolerability ([3]; 40 mg or 125 mg twice daily): well-tolerated
safety concerns [3]: No safety concerns were identified
safety laboratory and 12-lead ECG parameters [3]: no treatment-related or clinically relevant trends
Most common adverse events ([3]; 9 subjects): mild dizziness, headache, and somnolence reported in 2 subjects each
CSF IL-8, Day 41 vs baseline at matched time points [4]: trend towards lower CSF IL-8
HVLT-R Delayed Recall change from averaged baseline, Maximum ([5]; Day 14): 4
HVLT-R Delayed Recall change from averaged baseline, Median ([5]; Day 14): 1.0
HVLT-R Delayed Recall change from averaged baseline, Minimum ([5]; Day 14): −3
HVLT-R RDI change from averaged baseline, Maximum ([5]; Day 14): 5
HVLT-R RDI change from averaged baseline, Median ([5]; Day 14): −0.3
HVLT-R RDI change from averaged baseline, Minimum ([5]; Day 14): −3
HVLT-R Retention change from averaged baseline, Maximum ([5]; Day 14): 35%
HVLT-R Retention change from averaged baseline, Median ([5]; Day 14): 6.3%
HVLT-R Retention change from averaged baseline, Minimum ([5]; Day 14): −37%
HVLT-R Total Recall change from averaged baseline, Maximum ([5]; Day 14): 6
HVLT-R Total Recall change from averaged baseline, Median ([5]; Day 14): 0.0
HVLT-R Total Recall change from averaged baseline, Minimum ([5]; Day 14): −2
HVLT-R Delayed Recall change from averaged baseline, Arithmetic Mean ([5]; Day 14): 0.8
HVLT-R Retention change from averaged baseline, Arithmetic Mean ([5]; Day 14): 3.8%
HVLT-R Total Recall change from averaged baseline, Arithmetic Mean ([5]; Day 14): 0.6
HVLT-R Delayed Recall change from averaged baseline, Maximum ([5]; Day 40): 7
HVLT-R Delayed Recall change from averaged baseline, Median ([5]; Day 40): 1.0
HVLT-R Delayed Recall change from averaged baseline, Minimum ([5]; Day 40): 0
HVLT-R RDI change from averaged baseline, Maximum ([5]; Day 40): 6
HVLT-R RDI change from averaged baseline, Median ([5]; Day 40): 1.3
HVLT-R RDI change from averaged baseline, Minimum ([5]; Day 40): −11
HVLT-R Retention change from averaged baseline, Maximum ([5]; Day 40): 71%
HVLT-R Retention change from averaged baseline, Median ([5]; Day 40): 6.5%
HVLT-R Retention change from averaged baseline, Minimum ([5]; Day 40): −14%
HVLT-R Total Recall change from averaged baseline, Maximum ([5]; Day 40): 10
HVLT-R Total Recall change from averaged baseline, Median ([5]; Day 40): 4.5
HVLT-R Total Recall change from averaged baseline, Minimum ([5]; Day 40): −3
HVLT-R Delayed Recall change from averaged baseline, Arithmetic Mean ([5]; Day 40): 2.1
HVLT-R Retention change from averaged baseline, Arithmetic Mean ([5]; Day 40): 15.3%
HVLT-R Total Recall change from averaged baseline, Arithmetic Mean ([5]; Day 40): 3.5
Calculated within-subject treatment effect size (Cohen's d), Delayed Recall [5, 8]: .86
Calculated within-subject treatment effect size (Cohen's d), Immediate Recall [5, 8]: .69
Median increase in HVLT-R Total Recall score ([5]; during 6-week treatment): 4.5 (range: −2.5 to +9.5)
HVLT-R Mean Total Recall score ([5]; week 6, Baseline 19.1 (±1.5), p=0.015): 22.6 (±2.1)
HVLT-R Delayed Recall score ([5]; week 6, baseline 5.4 (±0.6), P=0.028): 7.5 (±1.1)
CSF levels of neurofilament light chain (NFL) [6]: no change
